# From publication doi:10.1101/318345v1, “Three enzymes and one substrate; regulation of flux through the glyoxylate shunt in the opportunistic pathogen, Pseudomonas aeruginosa” (biorxiv, 2018)
# Columns and labels:
# ICL = target: T1, ICL (Pseudomonas aeruginosa, UniProt Q9I0K4); test: ICL activity, spectrophotometric; format: biochemical; conditions: for Ki': uncompetitive, inhibitor at 1 mM, 37 °C, substrate isocitrate
# T1 construct: gene PA2634; full length, 531 residues, 59 kDa; His6-MBP fusion from E. coli DH5alpha, tag cleaved with Factor Xa; tetramer
# T1 sequence (Q9I0K4 1-531): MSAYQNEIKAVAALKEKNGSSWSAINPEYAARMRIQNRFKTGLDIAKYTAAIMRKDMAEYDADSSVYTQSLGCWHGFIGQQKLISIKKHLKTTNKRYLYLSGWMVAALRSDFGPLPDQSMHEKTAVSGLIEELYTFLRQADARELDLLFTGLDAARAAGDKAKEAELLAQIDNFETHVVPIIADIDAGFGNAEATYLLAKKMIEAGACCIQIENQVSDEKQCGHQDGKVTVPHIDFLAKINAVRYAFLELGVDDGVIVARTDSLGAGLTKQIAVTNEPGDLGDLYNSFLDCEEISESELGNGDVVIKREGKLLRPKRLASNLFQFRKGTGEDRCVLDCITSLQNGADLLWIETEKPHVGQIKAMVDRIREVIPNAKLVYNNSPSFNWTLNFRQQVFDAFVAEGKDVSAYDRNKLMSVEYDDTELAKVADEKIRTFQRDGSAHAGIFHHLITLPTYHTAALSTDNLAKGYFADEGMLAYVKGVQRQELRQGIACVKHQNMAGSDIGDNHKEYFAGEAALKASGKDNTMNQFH
# Description: ICL activity, spectrophotometric on ICL
# IDH [1] = target: T2, IDH (Pseudomonas aeruginosa, UniProt Q9I0L4); test: isocitrate dehydrogenase activity, NADPH at […] nm; format: biochemical; conditions: activator at 1 mM, V-type allosteric; 5 mM MgCl2, pH 7.5, 37 °C
# T2 construct: full length, 82 kDa; His6-MBP fusion from E. coli DH5alpha, tag cleaved with Factor Xa
# T2 sequence (Q9I0L4 1-741): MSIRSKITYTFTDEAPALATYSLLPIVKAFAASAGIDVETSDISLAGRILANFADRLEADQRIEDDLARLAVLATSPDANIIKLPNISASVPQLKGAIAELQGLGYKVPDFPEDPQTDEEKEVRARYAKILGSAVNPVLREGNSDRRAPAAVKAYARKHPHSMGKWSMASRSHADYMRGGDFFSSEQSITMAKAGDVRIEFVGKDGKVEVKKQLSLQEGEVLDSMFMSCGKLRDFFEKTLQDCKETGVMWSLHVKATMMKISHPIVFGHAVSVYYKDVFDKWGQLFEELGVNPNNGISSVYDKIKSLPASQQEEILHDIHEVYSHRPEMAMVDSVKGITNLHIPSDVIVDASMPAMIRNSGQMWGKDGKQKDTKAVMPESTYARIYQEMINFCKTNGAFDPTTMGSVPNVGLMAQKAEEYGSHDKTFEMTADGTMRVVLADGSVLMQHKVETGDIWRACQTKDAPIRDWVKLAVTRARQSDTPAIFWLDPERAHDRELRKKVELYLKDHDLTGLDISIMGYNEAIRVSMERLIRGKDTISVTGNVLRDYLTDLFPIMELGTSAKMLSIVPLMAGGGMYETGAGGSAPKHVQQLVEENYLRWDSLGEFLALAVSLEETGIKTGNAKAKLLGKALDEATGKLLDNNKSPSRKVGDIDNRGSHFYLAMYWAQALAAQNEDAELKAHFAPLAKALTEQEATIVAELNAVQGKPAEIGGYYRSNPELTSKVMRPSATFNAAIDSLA
# AceKPA = target: T3, AceKPA (Pseudomonas aeruginosa, UniProt Q9I3W8); test: AceK phosphatase coupled to ICD reactivation; format: biochemical; conditions: activator of phosphatase at 5 mM; ICD from P. aeruginosa as protein substrate; 1 mM ATP, 2 mM MgCl2, pH 7.0, 37 °C
# T3 construct: gene aceK; His6-tagged from pET-19m, tag cleaved with TEV protease
# T3 sequence (Q9I3W8 1-577): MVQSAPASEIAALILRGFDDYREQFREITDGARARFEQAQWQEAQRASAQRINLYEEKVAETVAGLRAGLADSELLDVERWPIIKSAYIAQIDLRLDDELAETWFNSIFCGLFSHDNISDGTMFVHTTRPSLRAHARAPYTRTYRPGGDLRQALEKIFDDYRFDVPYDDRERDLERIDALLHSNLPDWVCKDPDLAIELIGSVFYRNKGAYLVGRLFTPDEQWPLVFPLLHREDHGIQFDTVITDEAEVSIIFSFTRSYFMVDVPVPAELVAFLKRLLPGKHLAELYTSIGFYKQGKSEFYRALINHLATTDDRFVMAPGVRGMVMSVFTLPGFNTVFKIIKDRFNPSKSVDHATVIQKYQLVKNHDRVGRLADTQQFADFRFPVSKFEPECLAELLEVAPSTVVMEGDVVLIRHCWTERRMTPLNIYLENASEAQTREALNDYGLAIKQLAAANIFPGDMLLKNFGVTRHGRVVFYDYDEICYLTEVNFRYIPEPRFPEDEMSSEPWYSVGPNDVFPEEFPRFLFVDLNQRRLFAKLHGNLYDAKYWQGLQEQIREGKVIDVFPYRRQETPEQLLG
# T3 sequence (Q9I0L5 1-418 partner): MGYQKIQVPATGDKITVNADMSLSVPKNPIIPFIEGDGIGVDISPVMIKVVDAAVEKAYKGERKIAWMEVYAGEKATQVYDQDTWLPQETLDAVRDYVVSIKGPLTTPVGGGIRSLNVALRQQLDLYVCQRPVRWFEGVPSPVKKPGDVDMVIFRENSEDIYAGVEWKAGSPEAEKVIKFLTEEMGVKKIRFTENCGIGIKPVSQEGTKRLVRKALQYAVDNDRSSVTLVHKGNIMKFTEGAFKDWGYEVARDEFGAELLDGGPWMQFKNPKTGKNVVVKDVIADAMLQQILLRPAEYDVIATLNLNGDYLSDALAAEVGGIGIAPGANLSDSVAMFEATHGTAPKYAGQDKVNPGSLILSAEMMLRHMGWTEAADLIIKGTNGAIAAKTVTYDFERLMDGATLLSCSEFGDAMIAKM
# ICD = target: T4, ICD (Pseudomonas aeruginosa, UniProt Q9I0L5); test: isocitrate dehydrogenase activity, NADPH at […] nm; format: biochemical
# T4 construct: full length, 45 kDa; His6-MBP fusion from E. coli DH5alpha, tag cleaved with Factor Xa; dimer
# T4 sequence (Q9I0L5 1-418): T3 sequence (Q9I0L5 1-418 partner)
# IDH [2] = target: T2, IDH; test: X-ray crystal structure, […] Å; format: binding; conditions: chain A, with NADP
# [3] = text b11 prints a different value (0.6 mM)
smiles,measurement,setting,value
O=C(O)C[C@H](O)C(=O)O [malic acid],Ki,ICL,4400 µM
CC(=O)C(=O)O [pyruvate],"isocitrate dehydrogenase activity, NADPH at 340 nm",IDH [1],pyruvate and oxaloacetate were far more potent regulators
same,Ki,ICL,1700 µM
O=C(O)CO [glycolic acid],Ki,ICL,1800 µM
O=C(O)CC(O)(CC(=O)O)C(=O)O [citrate],Ki,ICL,15800 µM
O=C(O)/C=C/C(=O)O [fumarate],AceK phosphatase coupled to ICD reactivation,AceKPA,fumarate was the most potent activator of the phosphatase in AceKPA
C=C(CC(=O)O)C(=O)O [itaconic acid],Ki',ICL; text b11 prints a different value (0.5 mM),900 µM
O=C(O)CC[N+](=O)[O-] [nitropropionic acid],Ki',ICL; [3],1000 µM
O=C(O)CC(=O)O [malonic acid],Ki',ICL,2900 µM
O=C(O)CC(=O)C(=O)O [oxaloacetate],Ki,ICL,1400 µM
O=C(O)CCC(=O)O [succinate],Ki',ICL; [3],900 µM
CC(C)(COP(=O)(O)OP(=O)(O)OC[C@H]1O[C@@H](n2cnc3c(N)ncnc32)[C@H](O)[C@@H]1OP(=O)(O)O)[C@@H](O)C(=O)NCCC(=O)NCCS [coenzyme A],Ki,ICL,3900 µM
O=C(O)CCC(=O)C(=O)O [α-ketoglutarate],Ki,ICD,666 µM
same,"X-ray crystal structure, 2.7 Å",IDH [2],(designated chain A) contained bound α-ketoglutarate and NADP
